Source: publication PMC4467794 (Cell, 2015)

Biological target: T1, ALAS2 (apoALAS2) (Homo sapiens, UniProt P22557)
T1 sequence (P22557 50-587): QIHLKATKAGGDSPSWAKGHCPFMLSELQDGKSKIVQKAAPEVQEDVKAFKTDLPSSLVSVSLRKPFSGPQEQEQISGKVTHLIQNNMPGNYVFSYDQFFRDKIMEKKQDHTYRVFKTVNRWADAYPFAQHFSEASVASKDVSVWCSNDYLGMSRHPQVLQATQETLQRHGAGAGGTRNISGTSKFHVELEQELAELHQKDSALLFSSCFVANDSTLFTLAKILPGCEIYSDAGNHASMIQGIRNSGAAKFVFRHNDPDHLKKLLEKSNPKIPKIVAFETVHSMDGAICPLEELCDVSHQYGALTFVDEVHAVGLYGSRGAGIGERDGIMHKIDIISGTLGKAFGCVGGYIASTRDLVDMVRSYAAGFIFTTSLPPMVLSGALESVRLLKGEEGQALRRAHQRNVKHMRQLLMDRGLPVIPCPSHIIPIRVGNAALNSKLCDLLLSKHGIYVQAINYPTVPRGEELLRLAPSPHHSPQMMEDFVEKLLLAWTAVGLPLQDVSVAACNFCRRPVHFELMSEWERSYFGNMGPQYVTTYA
Assay: PLP reactivation of apoenzyme, NAD-coupled ALAS assay
Type: biochemical
Conditions: apoALAS2 5 µM, PLP 50 µM, pH 7.6, 30 °C, 5 mM MgCl2, 130 mM KCl, 0.75 mg/ml BSA; covalent

Compound: Cc1ncc(COP(=O)(O)O)c(C=O)c1O [pyridoxal phosphate]
- PLP reactivation of apoenzyme, NAD-coupled ALAS assay: apoALAS2 activation by PLP in vitro.
